From the NIST ThermoML archive (doi:10.1021/je0496995)

Tests used:
[1] = Liquid; for viscosity: 101.3 kPa, Capillary tube (Ostwald / Ubbelohde) method; for mass density: 101.33 kPa, Pycnometric method
[2] = wn = mass fraction of the nth substance listed; conditions: 101.3 kPa, Liquid; for viscosity: Capillary tube (Ostwald / Ubbelohde) method; for mass density: Pycnometric method
[3] = mn = molality of the nth substance listed, in mol/kg; conditions: Liquid, m2 = 0; for viscosity: 101.3 kPa, Capillary tube (Ostwald / Ubbelohde) method; for mass density: 101.33 kPa, Pycnometric method

Cc1cccnc1 [3-methylpyridine]
[1]
Conditions | mass density [kg/m3] | viscosity [mPa·s]
293.15 K | 956 | 0.9459
303.15 K | 946.6 | 0.8318
313.15 K | 937.7 | 0.7352
323.15 K | 928.3 | 0.6565
333.15 K | 919.3 | 0.5936
343.15 K | 910.3 | 0.539

Cc1cccnc1 [3-methylpyridine] + O
[2]
Conditions | mass density, w1 = 0.1 [kg/m3] | mass density, w1 = 0.15 [kg/m3] | viscosity, w2 = 0.1 [mPa·s] | viscosity, w2 = 0.15 [mPa·s]
293.15 K | 997.8 | 997.5 | 1.291 | 1.448
303.15 K | 994.4 | 993.7 | 1.002 | 1.143
313.15 K | 990.2 | 989.2 | 0.8117 | 0.9152
323.15 K | 985.2 | 983.7 | 0.6796 | 0.7673
333.15 K | 979.6 | 977.7 | 0.5794 | 0.6568
343.15 K | 973.7 | 971.7 | 0.5053 | 0.5712

Cc1cccnc1 [3-methylpyridine] + O=C(O)c1cccnc1
[3]
Conditions | mass density [kg/m3] | viscosity [mPa·s]
293.15 K | 956 | 0.9459
303.15 K | 946.6 | 0.8318
313.15 K | 937.7 | 0.7352
323.15 K | 928.3 | 0.6565
333.15 K | 919.3 | 0.5936
343.15 K | 910.3 | 0.539
